Measurements from patent US11149023B2, “Substituted triazole derivatives and uses thereof” (Bayer Pharma Aktiengesellschaft, priority 2017, dated 2021).

Legend:
human V2 receptor = human V2 receptor (Homo sapiens (Human), UniProt P30518); test: Cellular in vitro assay for determining vasopressin receptor activity (V2, CRE-luciferase); type: cell-based; details: CHO cell line transfected with human V2 receptor; [Arg8]-vasopressin at EC50 concentration; read-out: IC50 hV2
Description: (§1) B-1. Cellular In Vitro Assay for Determining Vasopressin Receptor Activity
(§2) The identification of agonists and antagonists of the V1a and V2 vasopressin receptors from humans, rats and dogs as well as the quantification of the activity of the compounds of the invention is carried out using recombinant cell lines. These cell lines originally derive from a hamster's ovary epithelial cell (Chinese Hamster Ovary, CHO K1, ATCC: American Type Culture Collection, Manassas, Va. 20108, USA). The test cell lines constitutively express the human, rat or dog V1a or V2 receptors. In case of the Gαq-coupled V1a receptors, cells are also stably transfected with a modified form of the calcium-sensitive photoproteins aequorin (human and rat V1a) or obe-lin (dog V1a), which, after reconstitution with the cofactor coelenterazine, emit light when there are increases in free calcium concentrations [Rizzuto R, Simpson A W, Brini M, Pozzan T, Nature 358, 325-327 (1992); Illarionov B A, Bondar V S, Illarionova V A, Vysotski E S, Gene 153 (2), 273-274 (1995)]. The resulting vasopressin receptor cells react to stimulation of the recombinantly expressed Via receptors by intracellular release of calcium ions, which can be quantified by the resulting photoprotein luminescence. The Gs-coupled V2 receptors are stably transfected into cell lines expressing the gene for firefly luciferase under control of a CRE-responsible promoter. Activation of V2 receptors induces the activation of the CRE-responsive promoter via cAMP increase, thereby inducing the expression of firefly luciferase. The light emitted by photoproteins of V1a cell lines as well as the light emitted by firefly luciferase of V2 cell lines corresponds to the activation or inhibition of the respective vasopressin receptor. The bioluminescence of the cell lines is detected using a suitable luminometer [Milligan G, Marshall F, Rees S, Trends in Pharmacological Sciences 17, 235-237 (1996)].
Vasopressin V2 Receptor Cell Lines:
On the day before the assay, the cells are plated out in culture medium (DMEM/F12, 2% FCS, 2 mM glutamine, 10 mM HEPES) in 384-well microtiter plates and kept in a cell incubator (96% humidity, 5% v/v CO2, 37° C.). On the day of the assay, test compounds in various concentrations and the agonist [Arg^8]-vasopressin at EC50 concentration are added together to the wells, and plates are incubated for 3 hours in a cell incubator. Upon addition of the cell lysis reagent Triton™ and the substrate luciferin, luminescence of firefly luciferase is measured in a luminometer.
(§3) Table 1A below lists individual IC50 values for the compounds of the invention (including racemic mixtures as well as separated enantiomers) that were obtained from cell lines transfected with the human Via or V2 receptor: […]

human V1a receptor = human V1a receptor (Homo sapiens (Human), UniProt P37288); test: Cellular in vitro assay for determining vasopressin receptor activity (V1a, aequorin luminescence); type: cell-based; details: for IC50: CHO cell line transfected with human V1a receptor, [Arg8]-vasopressin at EC50 concentration, read-out: IC50 hV1a; for ratio IC50 hV2/hV1a: selectivity, IC50 hV2 divided by IC50 hV1a
Description: as §1, §2
Vasopressin V1a Receptor Cell Lines:
On the day before the assay, the cells are plated out in culture medium (DMEM/F12, 2% FCS, 2 mM glutamine, 10 mM HEPES, 5 μg/ml coelenterazine) in 384-well microtiter plates and kept in a cell incubator (96% humidity, 5% v/v CO2, 37° C.). On the day of the assay, test compounds in various concentrations are placed for 10 minutes in the wells of the microtiter plate before the agonist [Arg^8]-vasopressin at EC50 concentration is added. The resulting light signal is measured immediately in a luminometer.
as §3

human V1a receptor, sequence (P37288 whole entry): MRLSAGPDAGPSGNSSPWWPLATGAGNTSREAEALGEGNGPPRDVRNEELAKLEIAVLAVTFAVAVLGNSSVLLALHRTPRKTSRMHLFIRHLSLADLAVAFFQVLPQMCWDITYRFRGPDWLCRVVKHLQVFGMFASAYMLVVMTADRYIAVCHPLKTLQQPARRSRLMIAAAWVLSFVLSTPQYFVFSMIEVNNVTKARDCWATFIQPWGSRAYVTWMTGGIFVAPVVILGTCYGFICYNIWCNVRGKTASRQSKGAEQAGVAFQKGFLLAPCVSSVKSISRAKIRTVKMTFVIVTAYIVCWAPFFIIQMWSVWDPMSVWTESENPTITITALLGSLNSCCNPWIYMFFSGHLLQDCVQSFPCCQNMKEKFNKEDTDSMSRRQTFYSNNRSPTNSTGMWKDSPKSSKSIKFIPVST
human V2 receptor, sequence (P30518 whole entry): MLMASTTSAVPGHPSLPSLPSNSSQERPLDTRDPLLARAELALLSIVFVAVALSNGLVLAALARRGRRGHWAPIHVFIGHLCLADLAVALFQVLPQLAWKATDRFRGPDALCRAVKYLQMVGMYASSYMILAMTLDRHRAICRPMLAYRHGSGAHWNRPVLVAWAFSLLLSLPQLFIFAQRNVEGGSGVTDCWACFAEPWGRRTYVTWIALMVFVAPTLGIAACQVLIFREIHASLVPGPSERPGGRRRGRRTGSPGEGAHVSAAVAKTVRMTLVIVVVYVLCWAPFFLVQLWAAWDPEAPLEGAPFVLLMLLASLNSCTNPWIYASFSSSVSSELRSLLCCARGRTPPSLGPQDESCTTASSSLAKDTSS

| Compound | IC50 (human V2 receptor) | IC50 (human V1a receptor) | ratio IC50 hV2/hV1a (human V1a receptor) |
| --- | --- | --- | --- |
| O=C(NC(Cn1c(-c2ccc(Cl)cc2)nn(Cc2ncn(-c3ncccc3Cl)n2)c1=O)C(F)(F)F)C1CC1 (racemic) [Example 14, N-{3-[3-(4-Chlorophenyl)-1-{[1-(3-chloropyridin-2-yl)-1H-1,2,4-triazol-3-yl]methyl}-5-oxo-1,5-dihydro-4H-1,2,4-triazol-4-yl]-1,1,1-trifluoropropan-2-yl}cyclopropanecarboxamide] | 220 nM | 12.4 nM | 17.7 |
| O=C(CC(F)=C(F)F)NC(Cn1c(-c2ccc(Cl)cc2)nn(Cc2ncn(-c3ncccc3Cl)n2)c1=O)C(F)(F)F (racemic) [Example 31, N-{3-[3-(4-Chlorophenyl)-1-{[1-(3-chloropyridin-2-yl)-1H-1,2,4-triazol-3-yl]methyl}-5-oxo-1,5-dihydro-4H-1,2,4-triazol-4-yl]-1,1,1-trifluoropropan-2-yl}-3,4,4-trifluorobut-3-enamide] | 109 nM | 3.4 nM | 32.1 |
| O=C(NC(Cn1c(-c2ccc(Cl)cc2)nn(Cc2ncn(-c3ncccc3Cl)n2)c1=O)C(F)(F)F)C1CC(F)(F)CN1 (stereo not drawn) [Example 53, N-{3-[3-(4-Chlorophenyl)-1-{[1-(3-chloropyridin-2-yl)-1H-1,2,4-triazol-3-yl]methyl}-5-oxo-1,5-dihydro-4H-1,2,4-triazol-4-yl]-1,1,1-trifluoropropan-2-yl}-4,4-difluoro-prolinamide] | 38 nM | 1.6 nM | 23.8 |
| O=C(NC(Cn1c(-c2ccc(Cl)cc2)nn(Cc2ncn(-c3ncccc3Cl)n2)c1=O)C(F)(F)F)C1COC1 (racemic) [Example 1, N-{3-[3-(4-Chlorophenyl)-1-{[1-(3-chloropyridin-2-yl)-1H-1,2,4-triazol-3-yl]methyl}-5-oxo-1,5-dihydro-4H-1,2,4-triazol-4-yl]-1,1,1-trifluoropropan-2-yl}oxetane-3-carboxamide] | 245 nM | 4.9 nM | 50.0 |
| CC(F)(F)C(=O)NC(Cn1c(-c2ccc(Cl)cc2)nn(Cc2ncn(-c3ncccc3Cl)n2)c1=O)C(F)(F)F (racemic) [Example 9] | 660 nM | 10 nM | 66.0 |
| CS(=O)(=O)CC(=O)NC(Cn1c(-c2ccc(Cl)cc2)nn(Cc2ncn(-c3ncccc3Cl)n2)c1=O)C(F)(F)F (racemic) [Example 46, N-{3-[3-(4-Chlorophenyl)-1-{[1-(3-chloropyridin-2-yl)-1H-1,2,4-triazol-3-yl]methyl}-5-oxo-1,5-dihydro-4H-1,2,4-triazol-4-yl]-1,1,1-trifluoropropan-2-yl}-2-(methylsulfonyl)acetamide] |  |  | 42.8 |
| O=C1CC[C@@H](C(=O)NC(Cn2c(-c3ccc(Cl)cc3)nn(Cc3ncn(-c4ncccc4Cl)n3)c2=O)C(F)(F)F)N1 (single isomer, unassigned) [Example 36, N-{3-[3-(4-Chlorophenyl)-1-{[1-(3-chloropyridin-2-yl)-1H-1,2,4-triazol-3-yl]methyl}-5-oxo-1,5-dihydro-4H-1,2,4-triazol-4-yl]-1,1,1-trifluoropropan-2-yl}-5-oxo-L-prolinamide] | 890 nM | 3.5 nM | 254.3 |
| O=C(NC(Cn1c(-c2ccc(Cl)cc2)nn(Cc2ncn(-c3ncccc3Cl)n2)c1=O)C(F)(F)F)[C@@H]1C[C@H](F)CN1 (stereo in doubt) [Example 48, N-{3-[3-(4-Chlorophenyl)-1-{[1-(3-chloropyridin-2-yl)-1H-1,2,4-triazol-3-yl]methyl}-5-oxo-1,5-dihydro-4H-1,2,4-triazol-4-yl]-1,1,1-trifluoropropan-2-yl}-4-fluoro-prolinamide] |  |  | 56.5 |
| O=C(CCC(F)(F)F)NC(Cn1c(-c2ccc(Cl)cc2)nn(Cc2ncn(-c3ncccc3Cl)n2)c1=O)C(F)(F)F (racemic) [Example 34, N-{3-[3-(4-Chlorophenyl)-1-{[1-(3-chloropyridin-2-yl)-1H-1,2,4-triazol-3-yl]methyl}-5-oxo-1,5-dihydro-4H-1,2,4-triazol-4-yl]-1,1,1-trifluoropropan-2-yl}-4,4,4-trifluorobutanamide] |  |  | 40.9 |
| O=C(NC(Cn1c(-c2ccc(Cl)cc2)nn(Cc2ncn(-c3ncccc3Cl)n2)c1=O)C(F)(F)F)C1(C(F)(F)F)CC1 (stereo not drawn) [Example 42, N-{3-[3-(4-Chlorophenyl)-1-{[1-(3-chloropyridin-2-yl)-1H-1,2,4-triazol-3-yl]methyl}-5-oxo-1,5-dihydro-4H-1,2,4-triazol-4-yl]-1,1,1-trifluoropropan-2-yl}-1-(trifluoromethyl)cyclopropane-carboxamide] |  |  | 9.0 |
| O=C(CCC(F)(F)F)NC(Cn1c(-c2ccc(Cl)cc2)nn(Cc2ncn(-c3ncccc3Cl)n2)c1=O)C(F)(F)F (racemic) [Example 33, N-{3-[3-(4-Chlorophenyl)-1-{[1-(3-chloropyridin-2-yl)-1H-1,2,4-triazol-3-yl]methyl}-5-oxo-1,5-dihydro-4H-1,2,4-triazol-4-yl]-1,1,1-trifluoropropan-2-yl}-4,4,4-trifluorobutanamide] |  |  | 26.1 |
| O=C(NC(Cn1c(-c2ccc(Cl)cc2)nn(Cc2ncn(-c3ncccc3Cl)n2)c1=O)C(F)(F)F)[C@@H]1C[C@@H](F)CN1 (stereo in doubt) [Example 49, N-{3-[3-(4-Chlorophenyl)-1-{[1-(3-chloropyridin-2-yl)-1H-1,2,4-triazol-3-yl]methyl}-5-oxo-1,5-dihydro-4H-1,2,4-triazol-4-yl]-1,1,1-trifluoropropan-2-yl}-4-fluoro-prolinamide] |  |  | 112.7 |
| O=C(NC(Cn1c(-c2ccc(Cl)cc2)nn(Cc2ncn(-c3ncccc3Cl)n2)c1=O)C(F)(F)F)C1CS(=O)(=O)C1 (racemic) [Example 39, N-{3-[3-(4-Chlorophenyl)-1-{[1-(3-chloropyridin-2-yl)-1H-1,2,4-triazol-3-yl]methyl}-5-oxo-1,5-dihydro-4H-1,2,4-triazol-4-yl]-1,1,1-trifluoropropan-2-yl}thietane-3-carboxamide 1,1-dioxide] |  |  | 110.9 |
| CS(=O)(=O)CC(=O)NC(Cn1c(-c2ccc(Cl)cc2)nn(Cc2ncn(-c3ncccc3Cl)n2)c1=O)C(F)(F)F (racemic) [Example 45, N-{3-[3-(4-Chlorophenyl)-1-{[1-(3-chloropyridin-2-yl)-1H-1,2,4-triazol-3-yl]methyl}-5-oxo-1,5-dihydro-4H-1,2,4-triazol-4-yl]-1,1,1-trifluoropropan-2-yl}-2-(methylsulfonyl)acetamide] |  |  | 9.8 |
| O=C(NC(Cn1c(-c2ccc(Cl)cc2)nn(Cc2ncn(-c3ncccc3Cl)n2)c1=O)C(F)(F)F)C1CS(=O)(=O)C1 (racemic) [Example 40, N-{3-[3-(4-Chlorophenyl)-1-{[1-(3-chloropyridin-2-yl)-1H-1,2,4-triazol-3-yl]methyl}-5-oxo-1,5-dihydro-4H-1,2,4-triazol-4-yl]-1,1,1-trifluoropropan-2-yl}thietane-3-carboxamide 1,1-dioxide] |  |  | 26.7 |
